Experimental data taken from patent publication US20230303542A1, “SOLID FORMS OF A PARP14 INHIBITOR” (Ribon Therapeutics, Inc., priority 2022, published 2023).
In brackets after ≈: the same amount, converted by molar mass.

Experiments:
Assay type in all cases: physicochemical
[1] = Preliminary solubility of Compound 1 Form I, visual assessment; settings: thermodynamic from solid, estimated via visual assessment
[2] = Dynamic solubility of Form II in single solvents, dissolution observed visually; settings: thermodynamic from solid, 22° C.
Description: An appropriate amount of Form II was weighed into a sample vial and then the indicated solvent was added gradually until all the solid was dissolved at RT. The dissolution was observed visually.

[3] = Kinetic solubility of Form II, clear temperature point by Crystal 16; settings: organic solvent or mixture, thermodynamic from solid; at 30° C.; volume ratio of MeOH-water/MTBE 9/1/30
[4] = Solid-state stability study (HPLC purity and XRPD); settings: 60° C. (closed) and 40° C./75%RH for 14 days
Description: HPLC analysis was performed with an Agilent HPLC 1260 series instrument.
At day 0, 7 and 14, the sample was dissolved in diluent to prepare solution for HPLC purity analysis. Solid samples were analyzed by XRPD to check the crystal form.
(closed) and 40° C./75%RH (open) up to 14 days, samples were prepared in duplicate for each condition. […] (closed) and 40° C./75%RH for 14 days.

[5] = Dynamic solubility of Form II in mixed solvents, dissolution observed visually; settings: thermodynamic from solid
From the text: The solubility data was used to control supersaturation and calculate theoretical yield of the crystallization process.

[6] = organic solvent or mixture, 2-Me-THF
[7] = organic solvent or mixture, Acetone
[8] = organic solvent or mixture, Ethanol (EtOH)
[9] = organic solvent or mixture, Ethyl acetate (EA)
[10] = organic solvent or mixture, Methanol (MeOH)
[11] = organic solvent or mixture, Methyl ethyl ketone (MEK)

Compound: CC(=O)N1CCC(COc2cc(F)c3c(=O)[nH]c(CSC4CCOCC4)nc3c2)CC1 [Form I, 7-((1-acetylpiperidin-4-yl)methoxy)-5-fluoro-2-(((tetrahydro-2H-pyran-4-yl)thio)methyl)quinazolin-4(3H)-one]
- solubility [1, 6]: 10000 µg/mL (≈ 22.2 mM)
- solubility ([1]; organic solvent or mixture, ACN): < 600 µg/mL
- solubility [1, 7]: 1000 µg/mL (≈ 2.22 mM)
- solubility ([1]; organic solvent or mixture, DCM): 6300 µg/mL (≈ 14 mM)
- solubility ([1]; organic solvent or mixture, DMSO): 16700 µg/mL (≈ 37.1 mM)
- solubility [1, 8]: 3300 µg/mL (≈ 7.34 mM)
- solubility [1, 9]: 2500 µg/mL (≈ 5.56 mM)
- solubility ([1]; organic solvent or mixture, Heptane): < 600 µg/mL
- solubility ([1]; organic solvent or mixture, Isopropyl acetate (IPAC)): 1300 µg/mL (≈ 2.89 mM)
- solubility ([1]; organic solvent or mixture, Isopropyl alcohol (IPA)): < 600 µg/mL
- solubility [1, 10]: 10000 µg/mL (≈ 22.2 mM)
- solubility [1, 11]: 10000 µg/mL (≈ 22.2 mM)
- solubility ([1]; organic solvent or mixture, Methyl tert-butyl ether (MTBE)): < 600 µg/mL
- solubility ([1]; organic solvent or mixture, THF): 4200 µg/mL (≈ 9.34 mM)
- solubility ([1]; organic solvent or mixture, Toluene): < 600 µg/mL
- solubility ([1]; Water): < 600 µg/mL

Compound: CC(=O)N1CCC(COc2cc(F)c3c(=O)[nH]c(CSC4CCOCC4)nc3c2)CC1 [Form II, 7-((1-acetylpiperidin-4-yl)methoxy)-5-fluoro-2-(((tetrahydro-2H-pyran-4-yl)thio)methyl)quinazolin-4(3H)-one]
- solubility [2, 6]: 700 µg/mL (≈ 1.56 mM)
- solubility ([2]; organic solvent or mixture, 2-Propanol (IPA)): < 600 µg/mL
- solubility ([2]; organic solvent or mixture, Acetic acid): > 167000 µg/mL
- solubility [2, 7]: 800 µg/mL (≈ 1.78 mM)
- solubility ([2]; organic solvent or mixture, Acetonitrile (ACN)): 600 µg/mL (≈ 1.33 mM)
- solubility ([2]; organic solvent or mixture, Dichloromethane (DCM)): 16700 µg/mL (≈ 37.1 mM)
- solubility ([2]; organic solvent or mixture, Dimethyl sulfoxide (DMSO)): 12500 µg/mL (≈ 27.8 mM)
- solubility [2, 8]: 1000 µg/mL (≈ 2.22 mM)
- solubility [2, 9]: < 600 µg/mL
- solubility ([2]; organic solvent or mixture, Isopropyl acetate (IPAc)): < 600 µg/mL
- solubility [2, 10]: 8300 µg/mL (≈ 18.5 mM)
- solubility [2, 11]: 1700 µg/mL (≈ 3.78 mM)
- solubility ([2]; organic solvent or mixture, Tert-Butyl methyl ether (MTBE)): < 600 µg/mL
- solubility ([2]; organic solvent or mixture, Tetrahydrofuran (THF)): 4200 µg/mL (≈ 9.34 mM)
- solubility ([2]; organic solvent or mixture, Toluene (Tol)): < 600 µg/mL
- solubility ([2]; organic solvent or mixture, n-Heptane (Hept)): < 600 µg/mL
- solubility ([2]; Water): < 600 µg/mL
- solubility at 30 min [3]: 6500 µg/mL
- Physical and chemical stability [4]: both physically and chemically stable
- solubility ([5]; MeOH/Anisole (1/2), organic solvent or mixture, MeOH/Anisole (½), 25° C.): ~150000 µg/mL (≈ 334 mM)
- solubility ([5]; MeOH/Anisole (1/2), organic solvent or mixture, MeOH/Anisole (½), 40° C.): > 200000 µg/mL
- solubility ([5]; organic solvent or mixture, Anisole, 25° C.): < 1000 µg/mL
- solubility ([5]; organic solvent or mixture, MeOH/Anisole (1/1), 25° C.): 163000 to 176000 µg/mL (≈ 363 to 392 mM)
- solubility ([5]; organic solvent or mixture, MeOH/Anisole (1/1), 40° C.): ~250000 µg/mL (≈ 556 mM)
- solubility ([5]; organic solvent or mixture, MeOH/Anisole (2/1), 25° C.): 96000 to 106000 µg/mL (≈ 214 to 236 mM)
- solubility at 30 min ([5]; organic solvent or mixture, MeOH/Anisole, volume ratio 1/1, RT, read-out: Solubility): 150000 to 160000 µg/mL
- solubility ([5]; organic solvent or mixture, MeOH/Anisole/Hept (1/1/6), 25° C.): < 5000 µg/mL
- solubility ([5]; organic solvent or mixture, MeOH/Anisole/Hept (1/2/3), 25° C.): > 10000 µg/mL
- solubility ([5]; organic solvent or mixture, MeOH/Anisole/Hept (1/2/6), 25° C.): ~5000 µg/mL (≈ 11.1 mM)
- solubility ([5]; organic solvent or mixture, MeOH/Anisole/MTBE (1/2/6), 25° C.): ~3000 µg/mL (≈ 6.67 mM)
- solubility at 30 min ([5]; organic solvent or mixture, MeOH/MEK, volume ratio 1/1, RT, read-out: Solubility): 20000 to 30000 µg/mL
- solubility ([5]; organic solvent or mixture, MeOH/water (7/3), 60° C.): ~125000 µg/mL (≈ 278 mM)
- solubility at 30 min ([5]; organic solvent or mixture, MeOH/water (7/3), RT, read-out: Dynamic solubility): 10000 to 13000 µg/mL (≈ 22.2 to 28.9 mM)
- solubility ([5]; organic solvent or mixture, MeOH/water (8/2), 50° C.): 50000 to 100000 µg/mL (≈ 111 to 222 mM)
- solubility ([5]; organic solvent or mixture, MeOH/water (8/2), 60° C.): > 125000 µg/mL
- solubility at 30 min ([5]; organic solvent or mixture, MeOH/water (8/2), RT, read-out: Dynamic solubility): 13000 to 17000 µg/mL (≈ 28.9 to 37.8 mM)
- solubility ([5]; organic solvent or mixture, MeOH/water (9/1), 0° C.): 6000 to 10000 µg/mL (≈ 13.3 to 22.2 mM)
- solubility ([5]; organic solvent or mixture, MeOH/water (9/1), 60° C.): > 125000 µg/mL
- solubility at 30 min ([5]; organic solvent or mixture, MeOH/water (9/1), RT (Table of MeOH/Water), read-out: Dynamic solubility): 10000 to 13000 µg/mL (≈ 22.2 to 28.9 mM)
- solubility at 30 min ([5]; organic solvent or mixture, MeOH/water, volume ratio 9/1, RT (Table of mixed solvents at RT), read-out: Solubility): 35000 to 43000 µg/mL
- solubility ([5]; organic solvent or mixture, MeOH/water/MTBE (9/1/10), 0° C.): > 4500 µg/mL
- solubility ([5]; organic solvent or mixture, MeOH/water/MTBE (9/1/20), 0° C.): ~3000 µg/mL (≈ 6.67 mM)
- solubility ([5]; organic solvent or mixture, MeOH, 25° C.): 8300 µg/mL (≈ 18.5 mM)
- solubility ([5]; organic solvent or mixture, MeOH, 50° C.): 29000 to 33000 µg/mL (≈ 64.5 to 73.4 mM)
- solubility ([5]; organic solvent or mixture, MeOH, 60° C.): 71000 to 83000 µg/mL (≈ 158 to 185 mM)
- solubility at 30 min ([5]; organic solvent or mixture, MeOH, RT, read-out: Dynamic solubility): 8300 µg/mL (≈ 18.5 mM)
- solubility at 30 min ([5]; volume ratio 1/2, organic solvent or mixture, Ethyl formate/Acetone, volume ratio ½, RT, read-out: Solubility): < 2000 µg/mL
- solubility at 30 min ([5]; volume ratio 1/2, organic solvent or mixture, Ethyl formate/EA, volume ratio ½, RT, read-out: Solubility): < 1000 µg/mL
- solubility at 30 min ([5]; volume ratio 1/2, organic solvent or mixture, Ethyl formate/IPA, volume ratio ½, RT, read-out: Solubility): < 2000 µg/mL
- solubility at 30 min ([5]; volume ratio 1/2, organic solvent or mixture, Ethyl formate/IPAC, volume ratio ½, RT, read-out: Solubility): < 1000 µg/mL
- solubility at 30 min ([5]; volume ratio 1/2, organic solvent or mixture, Ethyl formate/MEK, volume ratio ½, RT, read-out: Solubility): < 2000 µg/mL
- solubility at 30 min ([5]; volume ratio 1/2, organic solvent or mixture, Ethyl formate/MTBE, volume ratio ½, RT, read-out: Solubility): < 2000 µg/mL
- solubility at 30 min ([5]; volume ratio 1/2, organic solvent or mixture, Ethyl formate/diethyl ether, volume ratio ½, RT, read-out: Solubility): 7000 to 8000 µg/mL
- solubility at 30 min ([5]; volume ratio 1/2, organic solvent or mixture, Ethyl formate/n-BuOH, volume ratio ½, RT, read-out: Solubility): 3000 to 4000 µg/mL
- solubility at 30 min ([5]; volume ratio 1/2, organic solvent or mixture, MEK/EA, volume ratio ½, RT, read-out: Solubility): < 1000 µg/mL
- solubility at 30 min ([5]; volume ratio 1/2, organic solvent or mixture, MEK/Ethyl formate, volume ratio ½, RT, read-out: Solubility): < 1000 µg/mL
- solubility at 30 min ([5]; volume ratio 1/2, organic solvent or mixture, MEK/IPA, volume ratio ½, RT, read-out: Solubility): < 1000 µg/mL
- solubility at 30 min ([5]; volume ratio 1/2, organic solvent or mixture, MEK/IPAC, volume ratio ½, RT, read-out: Solubility): < 1000 µg/mL
- solubility at 30 min ([5]; volume ratio 1/2, organic solvent or mixture, MEK/diethyl ether, volume ratio ½, RT, read-out: Solubility): < 1000 µg/mL
- solubility at 30 min ([5]; volume ratio 1/2, organic solvent or mixture, MEK/n-BuOH, volume ratio ½, RT, read-out: Solubility): < 1000 µg/mL
- solubility at 30 min ([5]; volume ratio 1/2, organic solvent or mixture, MeOH/Acetone, volume ratio ½, RT, read-out: Solubility): < 14000 µg/mL
- solubility at 30 min ([5]; volume ratio 1/2, organic solvent or mixture, MeOH/Diethyl ether, volume ratio ½, RT, read-out: Solubility): < 2000 µg/mL
- solubility at 30 min ([5]; volume ratio 1/2, organic solvent or mixture, MeOH/EA, volume ratio ½, RT, read-out: Solubility): < 10000 µg/mL
- solubility at 30 min ([5]; volume ratio 1/2, organic solvent or mixture, MeOH/Ethyl formate, volume ratio ½, RT, read-out: Solubility): < 25000 µg/mL
- solubility at 30 min ([5]; volume ratio 1/2, organic solvent or mixture, MeOH/MEK, volume ratio ½, RT, read-out: Solubility): 24000 to 30000 µg/mL
- solubility at 30 min ([5]; volume ratio 1/2, organic solvent or mixture, MeOH/n-BuOH, volume ratio ½, RT, read-out: Solubility): < 3000 µg/mL
- solubility at 30 min ([5]; volume ratio 1/9, organic solvent or mixture, MeOH/Ethyl formate, volume ratio ⅑, RT, read-out: Solubility): < 1000 µg/mL
- solubility at 30 min ([5]; volume ratio 1/9, organic solvent or mixture, MeOH/MEK, volume ratio ⅑, RT, read-out: Solubility): 7000 to 8000 µg/mL
